{"source": "patent US5730982A", "about": "“Therapeutic use of hypervariable region of monoclonal antibody M195 and constructs thereof” (Sloan-Kettering Institute for Cancer Research, priority 1995, dated 1998)", "tested_on": "myeloid leukemic progenitor cells [CFU-GM-(L)] from AML patients", "assay": "Purging of fresh leukemic cells from AML patients, CFU-GM-(L) colony inhibition", "format": "cell-based", "settings": "Homo sapiens, fresh leukemic cells from 4 patients with AML, 4-HC 100 uM/L, VP-16 5 ug/ml where combined", "protocol": "We report the results of a preclinical study comparing four different purging protocols using promyelocytic human cell line HL-60 and myeloid leukemic progenitor cells [CFU-GM-(L)] from AML patients assayed in semisolid culture. We studied the antileukemic effect of 1] complement-dependent lysis by 2 different MoAbs (M195 and F23; 40 ug/ml), reactive with distinct antigens found on early myeloid cells and monocytes, used alone and in combinations; 2] 4-Hydroperoxycyclophosphamide (4-HC) (100 uM/L) alone or 3] combined with VP-16 (5 ug/ml) and 4] a cocktail of 1-3 protocols as above (ie combined immunochemotherapy). Four logs of HL-60 tumor cell elimination was observed after 1 hour incubation with both MoAbs plus 4-HC+VP-16 while the single treatment (ie immunotherapy or chemotherapy) provided 1.5 and 3.0 logs of colony forming inhibition respectively.\nThe combined treatment of MoAbs and 4-HC+VP-16 produced a 3-log reduction of CFU-GM-(L) colony formation. By comparison the mean recovery of committed normal bone marrow progenitors after incubation with MoAbs and complement was 19.5% for CFU-GM, 32.3% for BFU-E and 16.7% for CFU-MIX."}
{"smiles": "O=P1(N(CCCl)CCCl)NC(OO)CCO1", "note": "(stereo not shown) [4-HC, 4-Hydroperoxycyclophosphamide]", "values": [{"measurement": "inhibition at 100 µM", "value": 95.5, "unit": "%"}]}
